Test results as given in patent US20050147691A1, “Catalytic oxidation of peroxy salts” (priority 2002, published 2005).

Conditions: DPS 1 mM, ambient temperature
Method: The oxidation performance of the oxidizer or oxidizer based formulations was determined by fading of the crystal violet dye solution color. The fading of the color was monitored by measuring the UV absorbance of the dye solution at 589 nm, before and after addition of oxidizer or oxidizer based formulation. The change in absorbance or fading of color of the dye solution, corresponds to the oxidation activity of the oxidizer. The greater the change in absorbance, more reactive is the oxidizer composition.
The oxidation activity was determined by measuring the destruction of crystal violet dye color at a wavelength of 589 nm by these formulations.
Crystal Violet Dye solution: Prepare crystal violet dye solution by dissolving 5 mg of crystal violet dye in 1000 mls of deionized water. Dilute the solution accordingly to get a sharp peak at 589 nm.
Procedure: • 1. […] Into 1500 mls beaker add 1000 mls of crystal violet dye solution. • 3. Using Hach spectrophotometer measure initial absorbance of the dye solution at 589 nm. • 4. […] Measure the absorbance at 589 nm after 1 and 2 hours reaction time. • 6. Calculate the percent decrease in crystal violet dye absorbance at 589 nm using the formula: [formula] Where Absi=Absorbance of crystal violet dye solution at the start of the experiment […]

SMILES | effect on the oxidation performance of sodium dipersulfate, in words
O.O.O.O.O.O=S(=O)([O-])[O-].[Cu+2] [copper sulfate, copper sulfate pentahydrate] | increased
O.O.O.O.O.O.O.O=S(=O)([O-])[O-].[Zn+2] [zinc sulfate, zinc sulfate heptahydrate] | no effect
